Source: patent publication US10662151B1, “Process for preparing DTEA HCl” (AMSA, Inc., priority 2017, dated 2020)

Assay: Water solubility of DTEA HCl (pure and crude) at different temperatures
Format: physicochemical
Details: FIG. 2
Source text: FIG. 2 graphically represents the water solubility of pure DTEA HCl.

solids formation (15 wt % solution in water): forms solids well above RT
solubility in water (at 32° F.): essentially insoluble
solubility in water (at 56° F., no LTS): less than 1 wt %
solubility in water (at 67° F., no LTS): 11 wt %
Structure (SMILES): CCCCCCCCCCSCCN.Cl [DTEA HCl, n-decylthioethylamine HCl]
